Laboratory results from US20230093099A1, “COMPOUNDS AND METHODS OF TREATING CANCERS” (CULLGEN (SHANGHAI), INC., priority 2019, published 2023).
pIC50: −log10 of the molar value.

What was measured:
[1] = system: Pfeiffer cells; test: Cell viability assay (CellTiter-Glo) in Pfeiffer cells; format: cell-based; conditions: Homo sapiens, 72 h, DLBCL, 3 days
Experimental: (§1) MV4;11, RS4;11, Kasumi-1, HEL and other cells were treated with NVP-BSK805, TG101209 or selected degraders for 3 days at indicated concentrations following a 3-fold serial dilution.
(§2) HEL, RS4;11, MV4;11, Kasumi-1 and other cells were cultured at 37° C. with 5% CO2 in RPMI 1640 or DMEM Medium supplemented with 10% fetal bovine serum. Cells were authenticated using the short tandem repeat (STR) assays. Mycoplasma test results were negative.
(§3) Cells were seeded at a density of 5000 cells per well in 96-well assay plates and treated with test compounds following a 8-point or 12-point 3-fold serial dilution. Three days later, cell viability was determined using the CellTiter-Glo assay kit according to the manufacturer's instructions. The dose-response curves were determined and IC50 values were calculated using the GraphPad Prism software following a nonlinear regression (least squares fit) method.

[2] = system: Kasumi-1 cells; test: Cell viability assay (CellTiter-Glo) in Kasumi-1 cells; format: cell-based; conditions: for pIC50: Homo sapiens, 72 h, Kasumi-1, AML, cell viability, 3 days; for cell viability inhibition in combination with pomalidomide: Kasumi-1, 3 days, pomalidomide at 10 μM (FIG. 4)
Experimental: as §1, §2, §3

[3] = target: T1, JAK2-V617F (Homo sapiens, UniProt O60674, V617F); test: Immunoblot of JAK2 protein level in HEL cells; format: cell-based; conditions: 24 hours; for JAK2 protein level: HEL cells, immunoblot (FIG. 1)
T1 construct: immunoblot of JAK1/2/3 proteins expressed in HEL cells; endogenous in cells; host or cells: HEL cells
Experimental: (§4) HEL cells harboring JAK2-V617F mutation were treated with compounds at indicated concentrations for 24 hours. […] The concentrations required to reduce JAK2-V617 by 50% (DC50) were below 60 nM for compound JA-213.
as §2
(§5) Rabbit anti-JAK1 antibody (3344S), anti-JAK2 antibody (3230S), anti-JAK3 antibody (8827S), anti-TYK2 antibody (14193S), anti-FLT3 antibody (3462S), anti-RET antibody (14556S), anti-phospho-STAT3 (Tyr705) antibody (9145S) and anti-phospho-STAT5 (Tyr694) antibody (4322S) were purchased from Cell Signaling Technology. Rabbit anti-GSPT1 antibody (ab126090) was purchased from Abcam. HRP-conjugated anti-α-tubulin antibody was produced in house. Media and other cell culture reagents were purchased from Thermo Fisher. The CellTiter-Glo Luminescent Assay kit was purchased from Promega.
Cultured cells were washed with cold PBS once and lysed in cold RIPA buffer supplemented with protease inhibitors and phosphatase inhibitors (Beyotime Biotechnology). The solutions were then incubated at 4° C. for 30 minutes with gentle agitation to fully lyse cells. Cell lysates were centrifuged at 13,000 rpm for 10 minutes at 4° C. and pellets were discarded. Total protein concentrations in the lysates were determined by BCA assays (Beyotime Biotechnology). Cell lysates were mixed with Laemmli loading buffer to 1× and heated at 99° C. for 5 min. Proteins were resolved on SDS-PAGE and visualized by chemiluminescence. Images were taken by a ChemiDoc MP Imaging system (Bio-Rad). Protein bands were quantitated using the accompanied software provided by Bio-Rad.

[4] = system: p-STAT5; test: Immunoblot of p-STAT5 (downstream signaling) in HEL cells; format: cell-based; conditions: immunoblot (FIG. 1)
Experimental: To confirm JA-189 and JA-213 are true JAK degraders, HEL cell were treated with these two compounds at various compounds concentrations.
as §2, §5
(§6) Cultured cells were washed with cold PBS once and lysed in cold RIPA buffer supplemented with protease inhibitors and phosphatase inhibitors (Beyotime Biotechnology). […] Total protein concentrations in the lysates were determined by BCA assays (Beyotime Biotechnology). […] Protein bands were quantitated using the accompanied software provided by Bio-Rad.

[5] = system: MV4;11 cells; test: Cell viability assay (CellTiter-Glo) in MV4;11 cells; format: cell-based; conditions: for pIC50: Homo sapiens, 72 h, MV4;11, AML, cell viability, 3 days; for cell viability inhibition in combination with pomalidomide: MV4;11, 3 days, pomalidomide at 10 μM (FIG. 4)
Experimental: as §1, §2, §3

[6] = target: T2, JAK1 (Homo sapiens, UniProt P23458); test: Immunoblot of JAK1 protein level in HEL cells; format: cell-based; conditions: 24 hours, immunoblot (FIG. 1)
T2 construct: immunoblot of JAK1/3 proteins expressed in RS4;11 cells; endogenous in cells; host or cells: RS4;11 cells
Experimental: as §4, §2, §5, §6

[7] = system: AMO-1 cells; test: Cell viability assay (CellTiter-Glo) in AMO-1 cells; format: cell-based; conditions: Homo sapiens, AMO1, 72 h, AMO-1, Multiple Myeloma, 3 days
Experimental: as §1, §2, §3

[8] = system: NCI-H929 cells; test: Cell viability assay (CellTiter-Glo) in NCI-H929 cells; format: cell-based; conditions: Homo sapiens, 72 h, NCI-H929, Multiple Myeloma, 3 days
Experimental: as §1, §2, §3

[9] = system: CCRF-CEM cells; test: Cell viability assay (CellTiter-Glo) in CCRF-CEM cells; format: cell-based; conditions: Homo sapiens, 72 h, T-ALL, 3 days
Experimental: as §1, §2, §3

[10] = system: immortalized human lung fibroblast IMR-90 cells; test: Cell viability of non-cancerous lung fibroblast IMR-90 cells; format: cell-based; conditions: IMR-90, 3 days, 3-fold serial dilution (FIG. 6)
Experimental: (§7) Immortalized human lung fibroblast IMR-90 and keratinocyte HACAT cells were treated with JA-189 or JA-213 for 3 days at indicated concentrations following a 3-fold serial dilution.
as §3

[11] = system: NOMO-1 cells; test: Cell viability assay (CellTiter-Glo) in NOMO-1 cells; format: cell-based; conditions: Homo sapiens, 72 h, NOMO-1, AML, 3 days
Experimental: as §1, §2, §3

[12] = system: keratinocyte HACAT cells; test: Cell viability of non-cancerous keratinocyte HACAT cells; format: cell-based, human; conditions: 3 days, 3-fold serial dilution (FIG. 6)
Experimental: as §7, §3

[13] = system: MEG-01 cells; test: Cell viability assay (CellTiter-Glo) in MEG-01 cells; format: cell-based; conditions: Homo sapiens, 72 h, MEG-01, CML, 3 days
Experimental: as §1, §2, §3

[14] = system: MOLM-13 cells; test: Cell viability assay (CellTiter-Glo) in MOLM-13 cells; format: cell-based; conditions: Homo sapiens, 72 h, MOLM-13, AML, 3 days
Experimental: as §1, §2, §3

[15] = system: WSU-DLCL2 cells; test: Cell viability assay (CellTiter-Glo) in WSU-DLCL2 cells; format: cell-based; conditions: Homo sapiens, WSUDLCL2, 72 h, WSU-DLCL2, DLBCL, 3 days
Experimental: as §1, §2, §3

[16] = system: HEL cells; test: Cell viability assay (CellTiter-Glo) in HEL cells; format: cell-based; conditions: 3 days; for cell viability inhibition in combination with pomalidomide: pomalidomide at 10 μM (FIG. 4); for pIC50: Homo sapiens, 72 h, erythroleukemia, cell viability
Experimental: as §1, §2, §3

T1 sequence (O60674 whole entry V617F): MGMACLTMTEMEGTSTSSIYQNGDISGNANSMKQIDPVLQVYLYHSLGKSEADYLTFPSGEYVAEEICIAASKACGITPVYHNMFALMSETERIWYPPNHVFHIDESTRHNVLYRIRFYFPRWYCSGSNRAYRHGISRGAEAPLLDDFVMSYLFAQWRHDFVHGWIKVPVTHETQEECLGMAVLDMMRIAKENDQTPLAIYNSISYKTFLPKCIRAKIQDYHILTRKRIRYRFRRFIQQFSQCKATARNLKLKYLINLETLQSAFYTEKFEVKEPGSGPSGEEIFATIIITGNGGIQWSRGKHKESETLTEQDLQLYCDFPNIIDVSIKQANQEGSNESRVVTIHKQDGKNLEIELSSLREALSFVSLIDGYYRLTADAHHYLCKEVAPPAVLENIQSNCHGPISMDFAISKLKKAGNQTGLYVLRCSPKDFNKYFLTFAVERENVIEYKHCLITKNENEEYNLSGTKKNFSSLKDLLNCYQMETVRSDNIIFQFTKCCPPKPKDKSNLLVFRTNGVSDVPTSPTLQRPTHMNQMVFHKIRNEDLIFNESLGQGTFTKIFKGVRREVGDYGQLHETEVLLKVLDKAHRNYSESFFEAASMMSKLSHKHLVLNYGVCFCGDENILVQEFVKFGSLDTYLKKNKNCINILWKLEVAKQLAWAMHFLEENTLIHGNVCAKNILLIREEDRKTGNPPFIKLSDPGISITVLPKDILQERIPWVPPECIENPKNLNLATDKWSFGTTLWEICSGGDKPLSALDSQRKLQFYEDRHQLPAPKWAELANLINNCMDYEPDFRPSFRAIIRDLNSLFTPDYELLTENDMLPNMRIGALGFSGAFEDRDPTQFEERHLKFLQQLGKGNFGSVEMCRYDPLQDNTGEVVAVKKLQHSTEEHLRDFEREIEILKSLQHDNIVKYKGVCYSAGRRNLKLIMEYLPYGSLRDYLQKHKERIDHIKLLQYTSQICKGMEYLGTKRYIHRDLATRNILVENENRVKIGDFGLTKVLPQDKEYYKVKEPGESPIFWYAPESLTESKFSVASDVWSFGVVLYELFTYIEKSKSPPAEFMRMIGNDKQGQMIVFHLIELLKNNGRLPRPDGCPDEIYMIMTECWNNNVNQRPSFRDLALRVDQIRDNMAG
T2 sequence (P23458 whole entry): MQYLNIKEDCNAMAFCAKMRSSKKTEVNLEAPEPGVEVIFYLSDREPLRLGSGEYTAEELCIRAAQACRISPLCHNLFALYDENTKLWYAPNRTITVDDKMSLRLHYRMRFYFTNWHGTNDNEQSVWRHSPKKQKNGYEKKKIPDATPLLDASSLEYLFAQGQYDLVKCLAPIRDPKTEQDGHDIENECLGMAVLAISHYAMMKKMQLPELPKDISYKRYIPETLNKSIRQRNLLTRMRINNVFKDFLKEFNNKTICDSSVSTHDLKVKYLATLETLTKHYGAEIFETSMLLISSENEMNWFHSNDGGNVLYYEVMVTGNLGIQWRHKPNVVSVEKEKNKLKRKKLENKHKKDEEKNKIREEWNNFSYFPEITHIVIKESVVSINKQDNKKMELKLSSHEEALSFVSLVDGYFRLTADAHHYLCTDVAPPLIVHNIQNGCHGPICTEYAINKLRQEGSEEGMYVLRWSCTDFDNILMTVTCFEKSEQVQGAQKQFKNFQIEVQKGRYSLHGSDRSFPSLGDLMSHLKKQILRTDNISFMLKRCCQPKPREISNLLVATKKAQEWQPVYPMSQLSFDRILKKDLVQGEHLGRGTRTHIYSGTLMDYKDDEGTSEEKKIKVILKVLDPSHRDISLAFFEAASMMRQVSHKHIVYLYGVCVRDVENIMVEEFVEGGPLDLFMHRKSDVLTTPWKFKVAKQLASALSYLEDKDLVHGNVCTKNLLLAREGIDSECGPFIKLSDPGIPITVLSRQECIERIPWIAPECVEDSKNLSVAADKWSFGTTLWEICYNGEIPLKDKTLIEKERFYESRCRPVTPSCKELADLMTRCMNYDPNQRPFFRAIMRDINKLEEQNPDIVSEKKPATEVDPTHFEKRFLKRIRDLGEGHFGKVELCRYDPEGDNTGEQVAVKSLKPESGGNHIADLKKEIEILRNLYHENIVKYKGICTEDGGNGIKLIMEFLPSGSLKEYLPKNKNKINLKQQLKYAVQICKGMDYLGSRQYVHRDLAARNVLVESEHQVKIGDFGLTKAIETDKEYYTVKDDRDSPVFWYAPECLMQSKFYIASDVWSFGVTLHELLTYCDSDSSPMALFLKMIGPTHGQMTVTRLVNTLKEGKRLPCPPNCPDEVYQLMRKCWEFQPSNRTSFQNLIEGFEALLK

DC50 ([3]; HEL cells harboring JAK2-V617F, immunoblot, read-out: concentration required to reduce JAK2-V617 by 50% (DC50))	Compound	pIC50 [1]	pIC50 [2]	cell viability inhibition in combination with pomalidomide [2]	JAK2 protein level [3]	down stream signaling, p-STAT5 band [4]	pIC50 [5]	cell viability inhibition in combination with pomalidomide [5]	JAK1 protein level [6]	pIC50 [7]	pIC50 [8]	pIC50 [9]	sensitivity of non-cancerous cells (cell viability) [10]	pIC50 [11]	sensitivity of non-cancerous cells (cell viability) [12]	pIC50 [13]	pIC50 [14]	pIC50 [15]	cell viability inhibition in combination with pomalidomide [16]	pIC50 [16]
< 60 nM	CS(=O)(=O)c1ccc(-c2cccc3nc(Nc4ccc(N5CCN(CC(=O)NCCCCCCCCNc6ccc7c(c6)C(=O)N(C6CCC(=O)NC6=O)C7=O)CC5)cc4)nn23)cc1 (stereo not drawn) [JA-213]	6.57	7.16	greatly reduce the potencies of the degraders	able to reduce JAK1, JAK2 and JAK3 protein levels	weaker bands of p-STAT3 and p-STAT5	7.71	greatly reduce the potencies of the degraders	able to reduce JAK1, JAK2 and JAK3 protein levels	6.14	6.91	7.72	not sensitive	7.09	not sensitive	7.13	7.56	6.77	greatly reduce the potencies of the degraders	7.09
	O=C1CCC(N2C(=O)c3ccc(NCCCCCC(=O)N4CCC(n5cc(-c6cnc7cccc(-c8cc(F)c(CN9CCOCC9)c(F)c8)c7n6)cn5)CC4)cc3C2=O)C(=O)N1 (stereo not drawn) [JA-189, 5-((6-(4-(4-(8-(3,5-difluoro-4-(morpholinomethyl)phenyl)quinoxalin-2-yl)-1H-pyrazol-1-yl)piperidin-1-yl)-6-oxohexyl)amino)-2-(2,6-dioxopiperidin-3-yl)isoindoline-1,3-dione]	6.49	7.06	greatly reduce the potencies of the degraders	able to reduce JAK1, JAK2 and JAK3 protein levels	weaker bands of p-STAT3 and p-STAT5	8.10	greatly reduce the potencies of the degraders	able to reduce JAK1, JAK2 and JAK3 protein levels	6.21	6.98	8.42	not sensitive	7.27	not sensitive	7.05	7.68	6.97	greatly reduce the potencies of the degraders	6.75
